How the values were obtained:
[1] = system: male Zucker fatty rats; test: OGTT in Zucker fatty rats: SEQID-00105, alogliptin and combination, blood glucose; type: in vivo, rat; conditions: OGTT glucose 2 g/kg
Description: In another experiment, an OGTT was performed in 24, fasted, male Zucker fatty rats with indwelling jugular vein catheters (JVC) to assess the acute effects of nutritive protein dosing on glycemic control as well as insulin and GLP-1 levels. The capacity of SEQID-00105 to improve glucose control was tested by comparing the blood glucose excursion of SEQID-00105 to alogliptin to SEQID-00105+alogliptin to vehicle in the context of an oral glucose tolerance test. All rodents were approximately 10-11 weeks old, weighed average of approximately 430 g and acclimated for 4-5 days prior to testing. Prior to treatment, all rats were fasted overnight for fourteen hours. […] N=6 rats per treatment group. The error bars shown are the standard errors of the mean. Each group was compared post hoc on GraphPad Prism 6, two-way ANOVA, Dunnett's multiple comparisons test first comparing within each group to the fasting glucose concentration, followed by a comparison of each time point to vehicle. […] The integrated area under curve (AUC) was calculated on Microsoft Excel using the Linear-Log Trapezoidal Method and two-way ANOVA and Dunnett's multiple comparisons tests was conducted on GraphPad Prism 6.03.

[2] = system: burn injury; conditions: 0.35 g/kg supplementation, cited from earlier work
[3] = system: serotonin (5-HT) synthesis; conditions: oral intake of free Tryptophan; cited from earlier work
[4] = system: healthy subjects; conditions: oral supplementation, vs control; cited from earlier work
[5] = target: T1, Human transglutaminase (Homo sapiens, UniProt Q08188); conditions: read-out: Kd for calcium; cited from earlier work
T1 sequence (Q08188 1-693): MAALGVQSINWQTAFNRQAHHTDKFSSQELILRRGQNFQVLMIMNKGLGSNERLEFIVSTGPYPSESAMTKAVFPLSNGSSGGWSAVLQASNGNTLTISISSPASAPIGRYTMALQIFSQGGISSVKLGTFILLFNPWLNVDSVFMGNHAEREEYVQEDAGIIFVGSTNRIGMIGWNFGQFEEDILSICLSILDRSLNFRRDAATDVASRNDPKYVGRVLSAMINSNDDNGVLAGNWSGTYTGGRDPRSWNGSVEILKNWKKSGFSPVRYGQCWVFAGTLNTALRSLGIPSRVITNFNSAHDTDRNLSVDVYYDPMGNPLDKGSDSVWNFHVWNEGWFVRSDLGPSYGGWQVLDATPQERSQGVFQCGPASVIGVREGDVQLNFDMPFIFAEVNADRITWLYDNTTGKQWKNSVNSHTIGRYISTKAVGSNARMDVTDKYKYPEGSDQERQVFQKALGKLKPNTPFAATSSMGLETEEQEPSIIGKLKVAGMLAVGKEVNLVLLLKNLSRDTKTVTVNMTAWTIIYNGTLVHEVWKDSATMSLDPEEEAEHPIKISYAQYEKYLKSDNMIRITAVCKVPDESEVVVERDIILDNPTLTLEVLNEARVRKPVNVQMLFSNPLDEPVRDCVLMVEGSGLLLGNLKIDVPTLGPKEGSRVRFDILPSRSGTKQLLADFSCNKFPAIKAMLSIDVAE

[6] = system: ribosomal protein S6 (rps6); test: AlphaScreen SureFire rps6 phosphorylation in primary rat skeletal muscle cells; type: cell-based; conditions: primary RSkMC, different Leucine concentrations
Description: Primary Rat Skeletal Muscle Cell (RSKMC) culture. RSKMC were isolated using protocol described herein and cryopreserved in liquid nitrogen. The cells were also maintained in RSKMC medium (Cell Applications) in T75 tissue flask in a 37° C., 5% CO2 tissue culture incubator (Model 3110, Thermo Fisher Scientific). The cells were split every three day when they reached ˜90% confluency. RSKMC cells were cultured in RSKMC medium in T75 tissue flask to 100% confluency. The culture medium was aspirated from the culture flask and rinsed once with 10 ml of DPBS, and then 1.5 ml of 0.25% trypsin/EDTA was added to the cells. After the cells were detached from the flask, 10 ml of culture medium were added. The medium was pipetted up and down with a 10 ml pipet to detach the cells from the flask. The cells were then seeded into clear bottom 96-well tissue culture plates at a density of 50,000 cells per well. Following overnight culture in a 37° C., 5% CO2 incubator, the cells were starved over a period of 4 hours with starvation DME/F12 medium without FBS and leucine in a 37° C., 5% CO2 tissue culture incubator, then starved for another hour incubation with Hank's Buffered Salt Solution (HBSS). The cells were stimulated with different concentrations of leucine in starvation medium for 15 and 30 minutes. […]

[7] = Intact half-life during simulated gastric fluid (SGF) digestion; conditions: SGF pH 1.5, pepsin:polypeptide 1:20 w/w, 37° C.; intact protein
[8] = Thermostability, temperature of aggregation (ProteoStat Thermal Shift); type: physicochemical; conditions: Table E31D; heated 25° C. to 95° C.
Description: The thermostability of proteins in a buffer cocktail of Citric Acid and Dibasic Sodium Phosphate over a pH range of 2.8 to 7.1 (preparation described above in Table E31B) was determined using the ProteoStat® Thermal Shift Stability Kit (Enzo Life Sciences) according to the manufacturer's standard protocol. Briefly, protein solutions (˜10 mg/ml) containing 1× ProteoStat TS Detection Reagent were heated from 25° C. to 95° C. at a rate of 0.5° C. per 30 sec using a real-time PCR (rtPCR) thermocycler (BioRad) equipped with a plate reader (SynergyMx, Biotek) while monitoring the fluorescence with a Texas Red filter.

[9] = SGF digest of 168 nutritive polypeptide library, intact protein by LC-MS/MS; type: in vitro ADME; conditions: 168 nutritive polypeptide library SGF digest, LC-MS/MS spectral counts
Description: The in vitro intact half-life of multiple polypeptides in a complex mixture was determined using the simulated gastric in vitro digestion described above. Briefly, the 168 nutritive polypeptide library was generated as described herein by cloning, transforming, and expressing a gene library encoding 168 proteins as a single mixture. The recombinantly expressed proteins were purified from host cell proteins by IMAC purification as described herein.
The 168 Protein Library was treated with SGF as described above and the t=0 and t=10 min samples were analyzed for intact protein by LC-MS/MS. To begin, 10 μg of sample was loaded onto a 10% SDS-PAGE gel (Invitrogen) and run approximately 5 cm into the gel. The gel was excised into ten fractions from 100 kD to the dye front and the gel slices were processed by washing with 25 mM ammonium bicarbonate, followed by acetonitrile. Gel fractions were then reduced with 10 mM dithiothreitol at 60° C., followed by alkylation with 50 mM iodoacetamide at room temperature. […] The samples were then analyzed by nano LC/MS/MS using an EasynLC 1000 HPLC system interfaced to a ThermoFisher Q Exactive. […] A full list of detected proteins and their spectral counts (SpC) was generated and reported as a function of each collected gel fraction. […]

## Cn1c(=O)cc(N2CCC[C@@H](N)C2)n(Cc2ccccc2C#N)c1=O [Alogliptin]
[1]; at 30 minutes following glucose challenge
  blood glucose compared to vehicle: significantly lower blood glucose than vehicle
[1]; at 60 minutes following glucose challenge
  blood glucose compared to vehicle: significantly lower than vehicle
[1]; between time 0 and 120 minutes, P=0.0051
  glucose AUC compared to vehicle: significantly less than vehicle
[1]; between time 0 and 240 minutes, P=0.0054
  glucose AUC compared to vehicle: significantly less than vehicle

## NC(=O)CC[C@H](N)C(=O)O [Glutamine]
[2]; 12-day burn injury study
  reduction in hospital stay: 6 days
[2]; after 3 days, vs 5.5× decrease
  decrease in Lactulose/mannitol ratio: 8.8 ×

## N[C@@H](Cc1c[nH]c2ccccc12)C(=O)O [Tryptophan]
[3]
  increase of 5-HT production: 2 fold

## N=C(N)NCCC[C@H](N)C(=O)O [arginine, Arginine]
[4]
  increase in collagen deposition at wound sites: 2.4 ×

## [Ca+2] [calcium, calcium (Ca2+)]
[5]
  Kd: 300 to 3000 nM

## CC(C)C[C@H](N)C(=O)O [leucine]
[6]
  phosphorylation of rps6: stimulates phorphorylation of rps6 in primary RSkMC in a dose-dependent manner

## SEQID-00143: nutritive polypeptide (LYLEEVSKNLVEINPLKLEVKAKPWFVYTPMHGVGFDIFSTIVKKTLCLVEGK; listed as Saccharomyces cerevisiae)
[7]
  SGF Half-life (t½): 18 s

## SEQID-00212: nutritive polypeptide (LEEAKKKLLKDVEVLSQRLEEKALAYDKLEKTKTRLQQELDDLLVDLDHQ; listed as Bos taurus)
[7]
  SGF Half-life (t½): 18 s

## SEQID-00215: nutritive polypeptide (KKLLKDVEVLSQRLEEKALAYDKLEKTKTRLQQELDDLLVDLDHQRQIVSNLEKK; listed as Bos taurus)
[7]
  SGF Half-life (t½): 120 s

## SEQID-00218: nutritive polypeptide (GTIENLEEAKKKLLKDVEVLSQRLEEKALAYDKLEKTKTRLQQELDDLLVDLDHQ; listed as Bos taurus)
[7]
  SGF Half-life (t½): 360 s

## SEQID-00237: nutritive polypeptide (EEDKVNTLTKAKTKLEQQVDDLEGSLEQEKKLRMDLERAKRKLEGDLKLA; listed as Bos taurus)
[7]
  SGF Half-life (t½): 36 s
[8]
  Tagg (pH 7.1): 45

## SEQID-00615: protein of the 168 nutritive polypeptide library (MAGIIHKIEETLHMGGGRKEEEEKRKGEGQGHGGYKGEGQGHGGYKGEGQG; listed as Vitis vinifera)
[9]
  % Intact Protein at 10 min: 85.7%

From patent US20160228506A1, “Compositions and Formulations for Prevention and Reduction of Tumorigenesis, Cancer Cell Proliferation and Invasion, and Methods of Production and Use Thereof in Cancer Treatment” (PRONUTRIA, INC., priority 2013, published 2016)
